Measured values: ChEMBL document CHEMBL1158872, “Four new bioactive polybrominated diphenyl ethers of the sponge Dysidea herbacea from West Sumatra, Indonesia” (J Nat Prod, 1997)
Converted amounts (≈) assume the structure as drawn. The source made the active and inactive calls. The calls are words filed in the database; no cut-off is given here.

Key:
Cladosporium cucumerinum [1] = assay: Antimicrobial activity against Cladosporium cucumerinum at 25 nmol after 2 days by TLC based bioautography method; format: functional
Escherichia coli = assay: Antimicrobial activity against Escherichia coli; format: functional, organism-based
Cladosporium cucumerinum [2] = assay: Antimicrobial activity against Cladosporium cucumerinum at 50 nmol after 2 days by TLC based bioautography method; format: functional
[3] = Toxicity against Artemia salina; format: organism-based; details: in vivo

Structure (SMILES) | inhibition zone (IZ) (Cladosporium cucumerinum [1]) | Activity (Escherichia coli) | inhibition zone (IZ) (Cladosporium cucumerinum [2]) | LC50 [3]
Oc1c(Br)c(Br)c(Br)c(Br)c1Oc1ccccc1Br | 7 mm | inactive | 14 mm | 0.96 µg/mL (≈ 1.65 µM)
COc1c(Br)cc(Br)c(Br)c1Oc1ccccc1Br |  | inactive |  | 26.2 µg/mL (≈ 50.9 µM)
Oc1c(Br)cc(Br)cc1Oc1ccc(Br)cc1Br | 1.5 mm | inactive | 3.5 mm | 8.66 µg/mL (≈ 17.3 µM)
Oc1c(Br)c(Br)c(Br)c(Br)c1Oc1ccc(Br)cc1Br | 5 mm | inactive | 8 mm | 0.94 µg/mL (≈ 1.43 µM)
Oc1cc(Br)c(Br)c(Br)c1Oc1ccccc1Br | 8 mm | inactive | 13 mm | 3.3 µg/mL (≈ 6.58 µM)
